# Patent US20250287947A1, “BIOCIDES AND ADHESIVE BINDING THEREOF” (EBERHARD KARLS UNIVERSITÄT TÜBINGEN MEDIZINISCHE FAKULTÄT, priority 2022, published 2025)
# Like-named read-outs stand apart in the source and are kept apart here.
# Columns and labels:
# [1] = Interactions between salt concentration, temperature and pH on the state of matter of Py-C12 (Example 3); type: physicochemical; set-up: key: X: liquid; o: solid; conditions: 5% w/v
# Procedure: […] The samples were combined with NaCl solutions using concentrations between 0 and 3 M in water and subsequently incubated at temperatures between 24° C. and 45° C.
# [2] = Modulation of the state of matter by temperature shift (Example 10); type: physicochemical; conditions: 1% and 5% (w/v) free base in water
# [3] = Influence of pH on state of matter of Py-C12 at 20° C. (Example 1); type: physicochemical; set-up: key to state of matter: X: liquid; o: solid; conditions: for solubility in water / state of matter: 1% (w/v); for state of matter: 1% w/v, 20° C.
# From the text: 1% (w/v) 5-N-carboxamido-2-pyrrolidone-N-n-dodecyl propane-1,3-diamine (Py-C12) free base was adjusted with HCl or NaOH to pH values between 3.0 and 10.0.
# [4] = free base; i.e. 0.0033% (w/v) at ph 9.5; cited from earlier work
# [5] = tested on: Pseudomonas aeruginosa; experiment: Quantitative Suspension Test, modified DIN EN ISO 11930:2019 with organic load; type: cell-based; conditions: 0.025% (w/v) Py-C12, pH 7.0, organic load, incubation 1 day
# Procedure: (§1) In order to evaluate the bactericidal and fungicidal efficacy of Py-C12, Quantitative Suspension Tests were carried out under dirty conditions according to modified DIN EN ISO 11930:2019 with organic load using incubation periods of one and three days, respectively. For this purpose, 5-N-carboxamido-2-pyrrolidone-N-n-dodecyl propane-1,3-diamine (Py-C12) solutions were adjusted to pH 7.0 with HCl and subsequently diluted to corresponding test concentrations.
# [6] = tested on: Escherichia coli; experiment: as above; type: cell-based; conditions: 0.025% (w/v) Py-C12, pH 7.0, organic load, incubation 1 day
# Procedure: as §1
# [7] = tested on: Candida albicans; experiment: as above; type: cell-based; conditions: 0.025% (w/v) Py-C12, pH 7.0, organic load, incubation 1 day
# Procedure: as §1
# [8] = tested on: Aspergillus brasiliensis; experiment: as above; type: cell-based; conditions: 0.5% (w/v) Py-C12, pH 7.0, organic load, incubation 3 days
# Procedure: as §1
# [9] = tested on: Staphylococcus aureus; experiment: as above; type: cell-based; conditions: 0.01% (w/v) Py-C12, pH 7.0, organic load, incubation 1 day
# Procedure: as §1
# [10] = Influence of temperature on the state of matter of Py-C12 at pH 7.0 and pH 9.0 (Example 2); type: physicochemical; set-up: key to state of matter: X: liquid; o: solid; conditions: for solubility in water / state of matter: 1% (w/v); for state of matter: 1% w/v
# Procedure: 1% (w/v) 5-N-carboxamido-2-pyrrolidone-N-n-dodecyl propane-1,3-diamine (Py-C12) free base was adjusted with HCl or NaOH to pH values 7.0 and 9.0 and subsequently incubated at temperatures between 2° C. and 60° C. […] (see table 2).
# [11] = tested on: β-galactosidase-expressing E. coli strain; experiment: Wash resistance and biocidal activity of Py-C12 treated polyester fabric (Example 16); type: cell-based; conditions: treated with 5% (w/v) free base, E. coli 3 days at 37° C.
# Procedure: In a first step, 5% (w/v) Py-C12 free base in water was warmed to 50° C. to obtain a liquid solution. After incubation with the Py-C12 solution, the samples were cooled to room temperature upon which the liquid Py-C12 was converted into a solid phase and thus immobilized to the material. After drying, samples were washed with water at room temperature 10, 20, and 30 times for 15 minutes each time. Thereafter, all samples were inoculated with a β-galactosidase-expressing E. coli strain and then incubated for 3 days at 37° C.
smiles,measurement,setting,value
"CCCCCCCCCCCCNCCCNC(=O)C1CCC(=O)N1 (stereo not shown) [Py-C12, 5-N-carboxamido-2-pyrrolidone-N′-n-dodecyl propane-1,3-diamine]",state of matter,"[1]; pH 4.0, 28° C., 0.5M NaCl",X
same,state of matter,"[1]; pH 4.0, 28° C., 1.0M NaCl",X
same,state of matter,"[1]; pH 4.0, 28° C., 1.5M NaCl",X
same,state of matter,"[1]; pH 4.0, 28° C., 2.0M NaCl",X
same,state of matter,"[1]; pH 4.0, 28° C., 2.5M NaCl",o
same,state of matter,"[1]; pH 4.0, 28° C., 3.0M NaCl",o
same,state of matter,"[1]; pH 4.0, 28° C., no NaCl",X
same,state of matter,"[1]; pH 9.0, 24 °C, 0.5M NaCl",o
same,state of matter,"[1]; pH 9.0, 24 °C, 1.0M NaCl",o
same,state of matter,"[1]; pH 9.0, 24 °C, 1.5M NaCl",o
same,state of matter,"[1]; pH 9.0, 24 °C, 2.0M NaCl",o
same,state of matter,"[1]; pH 9.0, 24 °C, 2.5M NaCl",o
same,state of matter,"[1]; pH 9.0, 24 °C, 3.0M NaCl",o
same,state of matter,"[1]; pH 9.0, 24 °C, no NaCl",o
same,solubility in water,[2]; 50° C.,completely soluble
same,state of matter,[2]; room temperature,readily precipitated
same,solubility in water / state of matter,"[3]; pH values </=7.8, room temperature",completely soluble
same,solubility in water / state of matter,[3]; pH values >/=8,solid substance
same,state of matter,[3]; pH 3.0,X
same,state of matter,[3]; pH 4.0,X
same,state of matter,[3]; pH 5.0,X
same,state of matter,[3]; pH 6.0,X
same,state of matter,[3]; pH 7.0,X
same,state of matter,[3]; pH 7.8,X
same,state of matter,[3]; pH 8.0,o
same,state of matter,[3]; pH 9.0,o
same,state of matter,[3]; pH 10.0,o
same,solubility in water,[4],33 µg/mL
same,Germ reduction factor log10,[5],≥5.6 log10
same,Germ reduction factor log10,[6],≥5.5 log10
same,Germ reduction factor log10,[7],4.2 log10
same,Germ reduction factor log10,[8],4.6 log10
same,Germ reduction factor log10,[9],≥5.6 log10
same,solubility in water / state of matter,"[10]; pH 7, temperatures between 2° C. and 60° C.",completely soluble
same,solubility in water / state of matter,"[10]; pH 9.0, temperatures between 2° C. and 60° C.",only present in liquid state at the tested temperatures of 50 °C and 60 °C
same,state of matter,"[10]; pH 7.0, 2° C.",X
same,state of matter,"[10]; pH 7.0, 4° C.",X
same,state of matter,"[10]; pH 7.0, 8° C.",X
same,state of matter,"[10]; pH 7.0, 12° C.",X
same,state of matter,"[10]; pH 7.0, 16° C.",X
same,state of matter,"[10]; pH 7.0, 20° C.",X
same,state of matter,"[10]; pH 7.0, 30° C.",X
same,state of matter,"[10]; pH 7.0, 38° C.",X
same,state of matter,"[10]; pH 7.0, 50° C.",X
same,state of matter,"[10]; pH 7.0, 60° C.",X
same,state of matter,"[10]; pH 9.0, 2° C.",o
same,state of matter,"[10]; pH 9.0, 4° C.",o
same,state of matter,"[10]; pH 9.0, 8° C.",o
same,state of matter,"[10]; pH 9.0, 12° C.",o
same,state of matter,"[10]; pH 9.0, 16° C.",o
same,state of matter,"[10]; pH 9.0, 20° C.",o
same,state of matter,"[10]; pH 9.0, 30° C.",o
same,state of matter,"[10]; pH 9.0, 38° C.",o
same,state of matter,"[10]; pH 9.0, 50° C.",X
same,state of matter,"[10]; pH 9.0, 60° C.",X
same,bacterial growth on treated polyester fabric after washing,[11]; washed 10 times with water 15 min,unstained
same,bacterial growth on treated polyester fabric after washing,[11]; washed 20 times with water 15 min,unstained
same,bacterial growth on treated polyester fabric after washing,[11]; washed 30 times with water 15 min,Blue coloured bacteria
